# Numbers after ± are expanded uncertainties.
# Legend:
# [1] = Crystal; Adiabatic calorimetry
# [2] = Molar enthalpy of transition or fusion; settings: Crystal; Adiabatic calorimetry
smiles,measurement,setting,value
[2H]O[2H] [water-d2],Normal melting temperature,[1],3.68 ± 0.05 °C
same,Molar enthalpy of transition or fusion,[2],1.47 ± 0.0225 kcal/mol

# Reference: the NIST ThermoML archive (doi:10.1016/j.jct.2005.09.005)
